In assay [1] the test system is hairpin forming oligonucleotide (OD1). In words: Strand scission of 5'-32P-labeled hairpin oligonucleotide OD1 with MPA, PAGE / phosphorimage analysis. In kind it is biochemical. Here is the method: (§1) FIG. 3 is an autoradiogram of a 20% polyacrylamide denaturing gel (7 M urea) showing cleavage products of 100 nM 5′-^32P-labeled OD1 incubated with a compound of formula I and MPA (3-mercaptopropionic acid) for 15 minutes in sodium phosphate (10 mM, pH 7.5) at ambient temperature. Lane 1 depicts OD1 alone. Lane 2 depicts OD1 with 5 μM formula I. Lane 3 depicts OD1 with 5 mM MPA. Lane 4-6 depict 0.5, 1, and 5 μM formula I with 5 mM MPA and OD1. Lane 7 depicts OD1+OD2 with 10 μM formula 1 and 5 mM MPA. Lane 8 depicts A+G sequencing lane.
A hairpin forming oligonucleotide (OD1) (SEQ ID NO. 2) (see FIG. 1) was treated with a compound of formula I in the presence of excess MPA and it was then quenched with dithiocarbamic acid. […] Selectivity was reduced to 66% if the concentration of the compound of formula I is increased 10-fold to 5 μm, due in part to an increase in reactivity primarily at A9, T10 and T21 (FIG. 3, lane 6). In the absence of either the thiol or the compound of formula I, no cleavage of OD1 was observed (FIG. 3, lanes 2 and 3). In addition, there was no enhancement of reaction at A9, T10 or T21. […] The persistent specificity for A22 when OD2 is present was likely due to residual hairpin formed in competition with duplex DNA. […]

Assay [2] deals with OD1+OD2 duplex DNA. Briefly: Strand scission of duplex-forming OD1+OD2 with MPA, PAGE. In kind it is biochemical. Here is the method:
as §1
A hairpin forming oligonucleotide (OD1) (SEQ ID NO. 2) (see FIG. 1) was treated with a compound of formula I in the presence of excess MPA and it was then quenched with dithiocarbamic acid. […] Selectivity was reduced to 66% if the concentration of the compound of formula I is increased 10-fold to 5 μm, due in part to an increase in reactivity primarily at A9, T10 and T21 (FIG. 3, lane 6). In the absence of either the thiol or the compound of formula I, no cleavage of OD1 was observed (FIG. 3, lanes 2 and 3). In addition, there was no enhancement of reaction at A9, T10 or T21. […] The persistent specificity for A22 when OD2 is present was likely due to residual hairpin formed in competition with duplex DNA.

On to `[Cu+2].c1cnc2c(c1)ccc1cccnc12.c1cnc2c(c1)ccc1cccnc12` [Cu(OP)2^2+, bis(1,10-phenanthroline)copper], for which the “A22 as target of reaction” value in assay [1] and in assay [2] was “not a major target” throughout.

These data come from patent US20050026897A1, “Trinuclear copper-based compound and ligand for nucleic acid scission and anticancer treatment” (priority 2001, published 2005).
